One assay concerns the target hNAMPT protein (Homo sapiens (Human), UniProt P43490). The assay is described as follows: NAMPT enzyme assay (TR-FRET/HTRF, BodiPY ligand, anti 6His-Tb). The class given is binding. The settings on record: for inhibition at 1 µM: NAMPT inhibition at compound concentration 1 μM, read-out: Percent Inhibition; for IC50: NAMPT inhibition, IC50 range class, read-out: IC50. In short, it runs like this:
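Compound or DMSO was incubated for 1 h at room temperature, protected from light, with BodiPY ligand and hNAMPT labelled by terbium anti-6His antibody. The 520 nm to 486 nm emission ratio after 320 nm excitation gave inhibition versus vehicle, from which concentration-response curves yielded IC50.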
(In general: In TR-FRET formats the signal depends on donor and acceptor labels being close together.)

The test system of a further assay is PC3 cells. Put plainly: PC3 growth inhibition (Cell-titer glo, 72 hours). The class given is cell-based. The settings on record: Homo sapiens, PC-3; compound concentration 1.667 μM; PC3 cells, 72 hours, Cell-titer glo; read-out: Percent Inhibition (PC3 growth inhibition). Put shortly:
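Compounds in AIM serum-free medium were applied for 72 h at 37 °C, 5% CO2 to PC3 cells plated overnight from RPMI1640 culture. Luminescence after 10 min CellTiter-Glo, normalised to DMSO, gave % viability at 1 μM or 1.667 μM, or GI50/LD50.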

Chain of hNAMPT protein (P43490 whole entry): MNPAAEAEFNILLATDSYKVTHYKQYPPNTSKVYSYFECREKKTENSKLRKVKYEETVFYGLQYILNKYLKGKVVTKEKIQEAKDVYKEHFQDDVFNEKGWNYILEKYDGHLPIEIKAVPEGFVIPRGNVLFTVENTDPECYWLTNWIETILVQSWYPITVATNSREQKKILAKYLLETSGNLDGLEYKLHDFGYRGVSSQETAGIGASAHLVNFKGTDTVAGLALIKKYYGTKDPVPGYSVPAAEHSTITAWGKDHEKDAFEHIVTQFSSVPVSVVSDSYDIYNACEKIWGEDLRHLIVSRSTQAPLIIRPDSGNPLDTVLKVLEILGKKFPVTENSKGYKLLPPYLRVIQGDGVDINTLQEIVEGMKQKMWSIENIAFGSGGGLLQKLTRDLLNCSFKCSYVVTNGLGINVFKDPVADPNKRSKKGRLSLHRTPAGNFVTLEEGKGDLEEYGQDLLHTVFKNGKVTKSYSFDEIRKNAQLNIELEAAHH

In the case of `COc1ccc(-c2nc3cc(C(=O)NCCCc4ncc[nH]4)ccc3nc2-c2ccc(F)cc2)cc1` [Compound I-448, 2-(4-fluorophenyl)-N-[3-(1H-imidazol-2-yl)propyl]-3-(4-methoxyphenyl)quinoxaline-6-carboxamide], on hNAMPT protein, the inhibition – broadly, the percentage by which the read-out fell short of the control – at 1 µM worked out at 67% and the half-inhibitory concentration (IC50) (commonly the concentration needed to halve the response being measured) fell in the range of 0.1 to 0.5 µM. The inhibition at 1.667 µM with PC3 cells came out at 2%.

With `O=C(NCCCc1ncc[nH]1)c1ccc2nc(-c3ccc(F)cc3)c(-c3cc(F)c(F)c(F)c3)nc2c1` [Compound I-449, 2-(4-fluorophenyl)-N-[3-(1H-imidazol-2-yl)propyl]-3-(3,4,5-trifluorophenyl)quinoxaline-6-carboxamide], at hNAMPT protein, the inhibition at 1 µM amounted to 82% and the IC50 is 0.1 to 0.5 µM. For the same compound, the inhibition at 1.667 µM in the assay with PC3 cells was found to be 3%.

For `Cc1ccc(C)c(-c2nc3cc(C(=O)NCCCc4ncc[nH]4)ccc3nc2-c2ccc(F)cc2)c1` [Compound I-450, 3-(2,5-dimethylphenyl)-2-(4-fluorophenyl)-N-[3-(1H-imidazol-2-yl)propyl]quinoxaline-6-carboxamide], at hNAMPT protein, the inhibition at 1 µM was 93% and the IC50 is below 0.1 µM. Besides, in the assay on PC3 cells, the inhibition at 1.667 µM amounted to 1%.

Turning to `O=C(NCCCc1ncc[nH]1)c1ccc2nc(-c3ccc(F)cc3)c(-c3cc(C(F)(F)F)ccc3F)nc2c1` [Compound I-451, 2-(4-fluorophenyl)-3-[2-fluoro-5-(trifluoromethyl)phenyl]-N-[3-(1H-imidazol-2-yl)propyl]quinoxaline-6-carboxamide], on hNAMPT protein, the inhibition at 1 µM was found to be 97% and the half-maximal inhibitory concentration (IC50) was below 0.1 µM. Besides, the inhibition at 1.667 µM with PC3 cells was determined as 2%.

With `CC(C)Oc1nc2ccc(C(=O)NCc3ccc4nccn4c3)cc2nc1-c1ccc(F)cc1` [Compound I-452, 3-(4-Fluorophenyl)-N-(imidazo[1,2-a]pyridin-6-ylmethyl)-2-isopropoxyquinoxaline-6-carboxamide], on hNAMPT protein, the inhibition at 1 µM stood at 75% and the IC50 is 0.1 to 0.5 µM. Also, the inhibition at 1.667 µM with PC3 cells stood at 3%.

`O=C(NCCCc1ncc[nH]1)c1ccc2nc(-n3cnc4ccccc43)c(-c3ccc(F)cc3)nc2c1` [Compound I-453, 2-(1H-benzimidazol-1-yl)-3-(4-fluorophenyl)-N-[3-(1H-imidazol-2-yl)propyl]quinoxaline-6-carboxamide]: on hNAMPT protein, the inhibition at 1 µM stood at 88% and the IC50 is 0.1 to 0.5 µM. The inhibition at 1.667 µM in the assay with PC3 cells was determined as 3%.

With `O=C(NCCCc1ncc[nH]1)c1ccc2nc(OCc3ccccc3Cl)c(-c3ccc(F)cc3)nc2c1` [Compound I-454, 2-[(2-chlorobenzyl)oxy]-3-(4-fluorophenyl)-N-[3-(1H-imidazol-2-yl)propyl]quinoxaline-6-carboxamide], at hNAMPT protein, the inhibition at 1 µM was found to be 95% and the half-maximal inhibitory concentration (IC50) was below 0.1 µM. The inhibition at 1.667 µM in the assay on PC3 cells was found to be 2%.

For `O=C(NCCCc1ncc[nH]1)c1ccc2nc(-c3ccc(F)cc3)c(-c3ccc(Cl)cc3F)nc2c1` [Compound I-455, 3-(4-chloro-2-fluorophenyl)-2-(4-fluorophenyl)-N-[3-(1H-imidazol-2-yl)propyl]quinoxaline-6-carboxamide], at hNAMPT protein, the inhibition at 1 µM worked out at 80% and the half-maximal inhibitory concentration (IC50) lay in the range of 0.1 to 0.5 µM. Besides, the inhibition at 1.667 µM in the assay with PC3 cells was 3%.

Turning to `CN(C)C1CCC(Oc2nc3ccc(C(=O)NCCCc4ncc[nH]4)cc3nc2-c2ccc(F)cc2)CC1` (stereo not drawn) [Compound I-456, 2-{[4-(dimethylamino)cyclohexyl]oxy}-3-(4-fluorophenyl)-N-[3-(1H-imidazol-2-yl)propyl]quinoxaline-6-carboxamide], at hNAMPT protein, the inhibition at 1 µM was above 99% and the concentration for half-maximal inhibition (IC50) was below 0.1 µM. In the assay on PC3 cells, the inhibition at 1.667 µM amounted to 2%.

Turning to `COC1CCN(c2nc3ccc(C(=O)NCCCc4ncc[nH]4)cc3nc2-c2ccc(F)cc2)C1` (stereo not drawn) [Compound I-457, 3-(4-fluorophenyl)-N-[3-(1H-imidazol-2-yl)propyl]-2-(3-methoxypyrrolidin-1-yl)quinoxaline-6-carboxamide], at hNAMPT protein, the inhibition at 1 µM came out at 98% and the half-inhibitory concentration (IC50) is below 0.1 µM. Further, in the assay on PC3 cells, the inhibition at 1.667 µM was determined as 2%.

Take `N#Cc1cccc(-c2nc3cc(C(=O)NCCCc4ncc[nH]4)ccc3nc2-c2ccc(F)cc2)c1` [Compound I-458, 3-(3-cyanophenyl)-2-(4-fluorophenyl)-N-[3-(1H-imidazol-2-yl)propyl]quinoxaline-6-carboxamide]: on hNAMPT protein, the inhibition at 1 µM stood at 81% and the IC50 fell in the range of 0.1 to 0.5 µM. Also, the inhibition at 1.667 µM in the assay on PC3 cells amounted to 2%.

Take `O=C(NCCCc1ncc[nH]1)c1ccc2nc(OCc3ncc[nH]3)c(-c3ccc(F)cc3)nc2c1` [Compound I-459, 3-(4-fluorophenyl)-2-(1H-imidazol-2-ylmethoxy)-N-[3-(1H-imidazol-2-yl)propyl]quinoxaline-6-carboxamide]: on hNAMPT protein, the inhibition at 1 µM worked out at 47% and the 50% inhibitory concentration (IC50) lay in the range of 0.5 to 1 µM. Further, in the assay with PC3 cells, the inhibition at 1.667 µM is above 99%.

As for `Cn1ccc(COc2nc3ccc(C(=O)NCCCc4ncc[nH]4)cc3nc2-c2ccc(F)cc2)n1` [Compound I-460, 3-(4-fluorophenyl)-N-[3-(1H-imidazol-2-yl)propyl]-2-[(1-methyl-1H-pyrazol-3-yl)methoxy]quinoxaline-6-carboxamide], at hNAMPT protein, the inhibition at 1 µM was found to be 99% and the half-inhibitory concentration (IC50) was below 0.1 µM. The inhibition at 1.667 µM in the assay with PC3 cells was 2%.

As for `O=C(NCCCc1ncc[nH]1)c1ccc2nc(-c3ccc(F)cc3)c(-c3ccc4c(c3)OCO4)nc2c1` [Compound I-461, 3-(1,3-benzodioxol-5-yl)-2-(4-fluorophenyl)-N-[3-(1H-imidazol-2-yl)propyl]quinoxaline-6-carboxamide], at hNAMPT protein, the inhibition at 1 µM was 86% and the IC50 was in the range of 0.1 to 0.5 µM. Further, the inhibition at 1.667 µM with PC3 cells amounted to 2%.

Take `C#CCOc1nc2ccc(C(=O)NCCCc3ncc[nH]3)cc2nc1-c1ccc(F)cc1` [Compound I-462, 3-(4-fluorophenyl)-N-[3-(1H-imidazol-2-yl)propyl]-2-(prop-2-yn-1-yloxy)quinoxaline-6-carboxamide]: on hNAMPT protein, the inhibition at 1 µM was 95% and the 50% inhibitory concentration (IC50) was below 0.1 µM. In addition, the inhibition at 1.667 µM in the assay with PC3 cells was found to be 2%.

Turning to `O=C(NCCCc1ncc[nH]1)c1ccc2nc(-c3ccc(F)cc3)c(-c3cccc(Cl)c3)nc2c1` [Compound I-463, 3-(3-chlorophenyl)-2-(4-fluorophenyl)-N-[3-(1H-imidazol-2-yl)propyl]quinoxaline-6-carboxamide], on hNAMPT protein, the inhibition at 1 µM turned out to be 97% and the half-inhibitory concentration (IC50) is below 0.1 µM. In the assay on PC3 cells, the inhibition at 1.667 µM came out at 3%.

With `O=C(NCc1nc2cnccc2[nH]1)c1ccc2nc(-c3ccc(F)cc3)c(-c3ccc(F)cc3)nc2c1` [Compound I-464, 2,3-bis(4-fluorophenyl)-N-(1H-imidazo[4,5-c]pyridin-2-ylmethyl)quinoxaline-6-carboxamide], at hNAMPT protein, the inhibition at 1 µM was above 99% and the IC50 was below 0.1 µM. In addition, the inhibition at 1.667 µM in the assay with PC3 cells was determined as 0%.

Take `O=C(NCCCc1ncc[nH]1)c1ccc2nc(N3CCCC3)c(-c3ccc(F)cc3)nc2c1` [Compound I-465, 3-(4-fluorophenyl)-N-[3-(1H-imidazol-2-yl)propyl]-2-(pyrrolidin-1-yl)quinoxaline-6-carboxamide]: on hNAMPT protein, the inhibition at 1 µM turned out to be 98% and the IC50 is below 0.1 µM. Moreover, in the assay on PC3 cells, the inhibition at 1.667 µM came to 2%.

As for `COc1cc(-c2nc3cc(C(=O)NCCCc4ncc[nH]4)ccc3nc2-c2ccc(F)cc2)c(F)cn1` [Compound I-466, 3-(5-fluoro-2-methoxy-4-pyridyl)-2-(4-fluorophenyl)-N-[3-(1H-imidazol-2-yl)propyl]quinoxaline-6-carboxamide], at hNAMPT protein, the inhibition at 1 µM stood at 95% and the half-maximal inhibitory concentration (IC50) is below 0.1 µM. For the same compound, the inhibition at 1.667 µM in the assay on PC3 cells is 2%.

`COc1ccc(C)c(-c2nc3cc(C(=O)NCCCc4ncc[nH]4)ccc3nc2-c2ccc(F)cc2)c1` [Compound I-467, 2-(4-fluorophenyl)-N-[3-(1H-imidazol-2-yl)propyl]-3-(5-methoxy-2-methylphenyl)quinoxaline-6-carboxamide]: on hNAMPT protein, the inhibition at 1 µM turned out to be 94% and the IC50 is below 0.1 µM. Further, the inhibition at 1.667 µM in the assay with PC3 cells amounted to 2%.

Regarding `O=C(NCCCc1ncc[nH]1)c1ccc2nc(O[C@H]3CCOC3)c(-c3ccc(F)cc3)nc2c1` [Compound I-468, 3-(4-fluorophenyl)-N-[3-(1H-imidazol-2-yl)propyl]-2-[(3S)-tetrahydrofuran-3-yloxy]quinoxaline-6-carboxamide], at hNAMPT protein, the inhibition at 1 µM was 99% and the IC50 was below 0.1 µM. Besides, the inhibition at 1.667 µM in the assay with PC3 cells was found to be 2%.

For the compound `O=C(NCCCc1ncc[nH]1)c1ccc2nc(OCc3nccs3)c(-c3ccc(F)cc3)nc2c1` [Compound I-469, 3-(4-fluorophenyl)-N-[3-(1H-imidazol-2-yl)propyl]-2-(1,3-thiazol-2-ylmethoxy)quinoxaline-6-carboxamide], on hNAMPT protein, the inhibition at 1 µM came to 98% and the 50% inhibitory concentration (IC50) was below 0.1 µM. For the same compound, the inhibition at 1.667 µM with PC3 cells came out at 2%.

With `COc1ccc(-c2nc3cc(C(=O)NCCCc4ncc[nH]4)ccc3nc2-c2ccc(F)cc2)cc1F` [Compound I-470, 3-(3-fluoro-4-methoxyphenyl)-2-(4-fluorophenyl)-N-[3-(1H-imidazol-2-yl)propyl]quinoxaline-6-carboxamide], on hNAMPT protein, the inhibition at 1 µM was found to be 81% and the IC50 is 0.1 to 0.5 µM. Moreover, the inhibition at 1.667 µM in the assay with PC3 cells was 2%.

Regarding `Cc1cc(-c2nc3cc(C(=O)NCCCc4ncc[nH]4)ccc3nc2-c2ccc(F)cc2)ccc1F` [Compound I-471, 3-(4-fluoro-3-methylphenyl)-2-(4-fluorophenyl)-N-[3-(1H-imidazol-2-yl)propyl]quinoxaline-6-carboxamide], on hNAMPT protein, the inhibition at 1 µM is above 99% and the half-inhibitory concentration (IC50) is below 0.1 µM. The inhibition at 1.667 µM in the assay with PC3 cells was determined as 2%.

The record behind these values is patent US10144742B2 (Millennium Pharmaceuticals, Inc., priority 2014, dated 2018).
